Experimental data from patent US20230301300A1, “HERBICIDAL COMPOSITIONS” (SYNGENTA CROP PROTECTION AG, priority 2020, published 2023).

Tests used:
Assay in all cases: B2 Post-Emergence Efficacy - Test 2
Assay type in all cases: in vivo
[1] = tested on: Abutilon theophrasti (ABUTH); settings: 15 days after application, 0-100 scale
Outline: (§1)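 Glasshouse post-emergence test: plants sown in standard soil, grown 12 days (24/18 °C or 20/16 °C day/night; 16 h light; 65% humidity), sprayed once with an aqueous IF50-based formulation including 0.2% v/v Genapol X080. Visual injury, 0–100, recorded 15 days post-application.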

[2] = tested on: Amaranthus retroflexus (AMARE); settings: 15 days after application, 0-100 scale
Outline: as §1

[3] = tested on: Avena fatua (AVEFA); settings: 15 days after application, 0-100 scale
Outline: as §1

[4] = tested on: Beta vulgaris (BEAVA); settings: 15 days after application, 0-100 scale
Outline: as §1

[5] = tested on: Brachiaria plantaginea (BRAPL); settings: 15 days after application, 0=no damage, 100=total kill
Outline: as §1

[6] = tested on: Brassica napus (BRSNN); settings: 15 days after application, 0-100 scale
Outline: as §1

[7] = tested on: Bromus tectorum (BROTE); settings: 15 days after application, 0-100 scale
Outline: as §1

[8] = tested on: Digitaria sanguinalis (DIGSA); settings: 15 days after application, 0=no damage, 100=total kill
Outline: as §1

[9] = tested on: Glycine max (GLXMA); settings: 15 days after application; for Herbicidal activity GLXMA: 0-100 scale; for Herbicidal activity on a 0-100 scale, GLXMA: 0=no damage, 100=total kill
Outline: as §1

[10] = tested on: Ipomoea hederacea (IPOHE); settings: 15 days after application, 0-100 scale
Outline: as §1

[11] = tested on: Kochia scoparia (KSHSC); settings: 15 days after application, 0-100 scale
Outline: as §1

[12] = tested on: Lolium perenne (LOLPE); settings: 15 days after application, 0-100 scale
Outline: as §1

[13] = tested on: Poa annua (POAAN); settings: 15 days after application, 0-100 scale
Outline: as §1

[14] = tested on: Sida spinosa (SIDSP); settings: 15 days after application, 0-100 scale
Outline: as §1

[15] = tested on: Sinapis arvensis (SINAR); settings: 15 days after application, 0-100 scale
Outline: as §1

[16] = tested on: Sorghum bicolour (SORVU); settings: 15 days after application, 0=no damage, 100=total kill
Outline: as §1

[17] = tested on: Triticum aestivum (TRZAW); settings: 15 days after application, 0-100 scale
Outline: as §1

[18] = tested on: Xanthium strumarium (XANST); settings: 15 days after application, 0-100 scale
Outline: as §1

## Cc1nn(C)c(=O)c(-c2c(F)ccc(Cl)c2CCc2ccc(Cl)cc2)c1OC(=O)C(C)C [Compound 1.089, [5-[3-chloro-2-[2-(4-chlorophenyl)ethyl]-6-fluoro-phenyl]-1,3-dimethyl-6-oxo-pyridazin-4-yl] 2-methylpropanoate]
[1]; 15 g/Ha
  Herbicidal activity ABUTH: 70
[1]; 30 g/Ha
  Herbicidal activity ABUTH: 90
[1]; 60 g/Ha
  Herbicidal activity ABUTH: 100
[1]; 125 g/Ha
  Herbicidal activity ABUTH: 100
[1]; 250 g/Ha
  Herbicidal activity ABUTH: 100
[1]; 500 g/Ha
  Herbicidal activity ABUTH: 100
[2]; 15 g/Ha
  Herbicidal activity AMARE: 80
[2]; 30 g/Ha
  Herbicidal activity AMARE: 80
[2]; 60 g/Ha
  Herbicidal activity AMARE: 90
[2]; 125 g/Ha
  Herbicidal activity AMARE: 100
[2]; 250 g/Ha
  Herbicidal activity AMARE: 100
[2]; 500 g/Ha
  Herbicidal activity AMARE: 100
[3]; 15 g/Ha
  Herbicidal activity AVEFA: 30
[3]; 30 g/Ha
  Herbicidal activity AVEFA: 70
[3]; 60 g/Ha
  Herbicidal activity AVEFA: 70
[3]; 125 g/Ha
  Herbicidal activity AVEFA: 80
[3]; 250 g/Ha
  Herbicidal activity AVEFA: 90
[3]; 500 g/Ha
  Herbicidal activity AVEFA: 90
[4]; 15 g/Ha
  Herbicidal activity BEAVA: 90
[4]; 30 g/Ha
  Herbicidal activity BEAVA: 80
[4]; 60 g/Ha
  Herbicidal activity BEAVA: 80
[4]; 125 g/Ha
  Herbicidal activity BEAVA: 80
[4]; 250 g/Ha
  Herbicidal activity BEAVA: 90
[4]; 500 g/Ha
  Herbicidal activity BEAVA: 90
[5]; 15 g/Ha
  Herbicidal activity on a 0-100 scale, BRAPL: 80
[5]; 30 g/Ha
  Herbicidal activity on a 0-100 scale, BRAPL: 90
[5]; 250 g/Ha
  Herbicidal activity on a 0-100 scale, BRAPL: 90
[5]; 500 g/Ha
  Herbicidal activity on a 0-100 scale, BRAPL: 90
[6]; 15 g/Ha
  Herbicidal activity BRSNN: 80
[6]; 30 g/Ha
  Herbicidal activity BRSNN: 80
[6]; 60 g/Ha
  Herbicidal activity BRSNN: 90
[6]; 125 g/Ha
  Herbicidal activity BRSNN: 90
[6]; 250 g/Ha
  Herbicidal activity BRSNN: 90
[6]; 500 g/Ha
  Herbicidal activity BRSNN: 90
[7]; 15 g/Ha
  Herbicidal activity BROTE: 0
[7]; 30 g/Ha
  Herbicidal activity BROTE: 0
[7]; 60 g/Ha
  Herbicidal activity BROTE: 10
[7]; 125 g/Ha
  Herbicidal activity BROTE: 30
[7]; 250 g/Ha
  Herbicidal activity BROTE: 60
[7]; 500 g/Ha
  Herbicidal activity BROTE: 70
[8]; 15 g/Ha
  Herbicidal activity on a 0-100 scale, DIGSA: 0
[8]; 30 g/Ha
  Herbicidal activity on a 0-100 scale, DIGSA: 0
[8]; 60 g/Ha
  Herbicidal activity on a 0-100 scale, DIGSA: 0
[8]; 125 g/Ha
  Herbicidal activity on a 0-100 scale, DIGSA: 10
[8]; 250 g/Ha
  Herbicidal activity on a 0-100 scale, DIGSA: 40
[8]; 500 g/Ha
  Herbicidal activity on a 0-100 scale, DIGSA: 30
[9]; 30 g/Ha
  Herbicidal activity GLXMA: 70
  Herbicidal activity on a 0-100 scale, GLXMA: 70
[9]; 60 g/Ha
  Herbicidal activity GLXMA: 80
  Herbicidal activity on a 0-100 scale, GLXMA: 80
[9]; 250 g/Ha
  Herbicidal activity GLXMA: 100
  Herbicidal activity on a 0-100 scale, GLXMA: 100
[9]; 500 g/Ha
  Herbicidal activity GLXMA: 100
  Herbicidal activity on a 0-100 scale, GLXMA: 100
[10]; 15 g/Ha
  Herbicidal activity IPOHE: 100
[10]; 30 g/Ha
  Herbicidal activity IPOHE: 100
[10]; 60 g/Ha
  Herbicidal activity IPOHE: 100
[10]; 125 g/Ha
  Herbicidal activity IPOHE: 100
[10]; 250 g/Ha
  Herbicidal activity IPOHE: 100
[10]; 500 g/Ha
  Herbicidal activity IPOHE: 100
[11]; 15 g/Ha
  Herbicidal activity KCHSC: 10
[11]; 30 g/Ha
  Herbicidal activity KCHSC: 20
[11]; 60 g/Ha
  Herbicidal activity KCHSC: 50
[11]; 125 g/Ha
  Herbicidal activity KCHSC: 60
[11]; 250 g/Ha
  Herbicidal activity KCHSC: 60
[11]; 500 g/Ha
  Herbicidal activity KCHSC: 60
[12]; 15 g/Ha
  Herbicidal activity LOLPE: 40
[12]; 30 g/Ha
  Herbicidal activity LOLPE: 70
[12]; 60 g/Ha
  Herbicidal activity LOLPE: 80
[12]; 125 g/Ha
  Herbicidal activity LOLPE: 90
[12]; 250 g/Ha
  Herbicidal activity LOLPE: 90
[12]; 500 g/Ha
  Herbicidal activity LOLPE: 90
[13]; 15 g/Ha
  Herbicidal activity POAAN: 20
[13]; 30 g/Ha
  Herbicidal activity POAAN: 40
[13]; 60 g/Ha
  Herbicidal activity POAAN: 70
[13]; 125 g/Ha
  Herbicidal activity POAAN: 90
[13]; 250 g/Ha
  Herbicidal activity POAAN: 80
[13]; 500 g/Ha
  Herbicidal activity POAAN: 70
[14]; 30 g/Ha
  Herbicidal activity SIDSP: 80
[14]; 60 g/Ha
  Herbicidal activity SIDSP: 90
[14]; 125 g/Ha
  Herbicidal activity SIDSP: 100
[14]; 250 g/Ha
  Herbicidal activity SIDSP: 100
[14]; 500 g/Ha
  Herbicidal activity SIDSP: 100
[15]; 15 g/Ha
  Herbicidal activity SINAR: 70
[15]; 30 g/Ha
  Herbicidal activity SINAR: 80
[15]; 60 g/Ha
  Herbicidal activity SINAR: 90
[15]; 125 g/Ha
  Herbicidal activity SINAR: 90
[15]; 250 g/Ha
  Herbicidal activity SINAR: 90
[15]; 500 g/Ha
  Herbicidal activity SINAR: 90
[16]; 15 g/Ha
  Herbicidal activity on a 0-100 scale, SORVU: 0
[16]; 30 g/Ha
  Herbicidal activity on a 0-100 scale, SORVU: 60
[16]; 60 g/Ha
  Herbicidal activity on a 0-100 scale, SORVU: 70
[16]; 125 g/Ha
  Herbicidal activity on a 0-100 scale, SORVU: 90
[16]; 250 g/Ha
  Herbicidal activity on a 0-100 scale, SORVU: 90
[16]; 500 g/Ha
  Herbicidal activity on a 0-100 scale, SORVU: 90
[17]; 15 g/Ha
  Herbicidal activity TRZAW: 0
[17]; 30 g/Ha
  Herbicidal activity TRZAW: 0
[17]; 60 g/Ha
  Herbicidal activity TRZAW: 20
[17]; 125 g/Ha
  Herbicidal activity TRZAW: 30
[17]; 250 g/Ha
  Herbicidal activity TRZAW: 60
[17]; 500 g/Ha
  Herbicidal activity TRZAW: 70
[18]; 30 g/Ha
  Herbicidal activity XANST: 90
[18]; 60 g/Ha
  Herbicidal activity XANST: 80
[18]; 125 g/Ha
  Herbicidal activity XANST: 90
[18]; 250 g/Ha
  Herbicidal activity XANST: 90
[18]; 500 g/Ha
  Herbicidal activity XANST: 100
